Assay results as given in US20170107207A1, “AMINOPYRAZOLONE DERIVATIVE” (DAIICHI SANKYO COMPANY, LIMITED, priority 2014, published 2017).

Test system: Skin cancer cell line A375 cells
Assay: Antitumor test, mouse subcutaneous transplantation model, A375
Assay type: in vivo
Conditions: A375 in nude mice, 4 consecutive days, tumor measured next day
Description: In vivo test of test compound: Antitumor test using mouse subcutaneous transplantation model
Skin cancer cell line A375 cells were dissociated from a culture flask by trypsin treatment, then suspended in a DMEM medium (Life Technologies Corp.) containing 10% FBS, and then centrifuged to remove the supernatant. The cells were washed with this medium twice and then suspended in PBS. The cell suspension was subcutaneously transplanted at a dose of 3×10^6 cells/mouse to the right axillary regions of 6-week-old nude mice (BALB/cAJc1-nu/nu, CLEA Japan, Inc.). The test was conducted by using cancer-bearing mice having an estimated tumor volume (major axis×minor axis×minor axis/2) of 75 to 150 mm3 and grouping the cancer-bearing mice without significant difference in average estimated tumor volume from a negative control group. The compound of Example 113 was suspended in solvent (EtOH/DMA/Solutol HS-15/PEG400/5% HMPC). The suspension was orally administered to each mouse twice a day (BID) at a dose of 50, 100, or 200 mg/kg for 4 consecutive days. On the next day, the tumor sizes were measured.
The rate of tumor growth inhibition was also calculated in this test according to the following expression and is shown in a table.
Rate of tumor growth inhibition (%)=100−(Average value of the tumor volumes of the test compound administration group)/(Average value of the tumor volumes of the vehicle administration group)×100.

Compound: CCOc1cc(F)c(Cl)cc1C(=O)NCC(C)(C)CC(=O)Nc1c(COC)n(C)n(-c2ccccc2)c1=O [Example 113, 5-Chloro-2-ethoxy-4-fluoro-N-(4-{[5-(methoxymethyl)-1-methyl-3-oxo-2-phenyl-2,3-dihydro-1H-pyrazol-4-yl]amino}-2,2-dimethyl-4-oxobutyl)benzamide]
- Rate of tumor growth inhibition (%) (50 mg/kg orally BID): 19%
- Rate of tumor growth inhibition (%) (100 mg/kg orally BID): 61%
- Rate of tumor growth inhibition (%) (200 mg/kg orally BID): 86%
